PMC10247784, “Physiological activation of human and mouse bitter taste receptors by bile acids” (Communications Biology, 2023)

Biological target: T1, mouse Tas2r126 (Mus musculus, UniProt P59532)
T1 construct: expressed in transfected cells; host or cells: HEK293T-Gα16gust44
T1 sequence (P59532 1-308): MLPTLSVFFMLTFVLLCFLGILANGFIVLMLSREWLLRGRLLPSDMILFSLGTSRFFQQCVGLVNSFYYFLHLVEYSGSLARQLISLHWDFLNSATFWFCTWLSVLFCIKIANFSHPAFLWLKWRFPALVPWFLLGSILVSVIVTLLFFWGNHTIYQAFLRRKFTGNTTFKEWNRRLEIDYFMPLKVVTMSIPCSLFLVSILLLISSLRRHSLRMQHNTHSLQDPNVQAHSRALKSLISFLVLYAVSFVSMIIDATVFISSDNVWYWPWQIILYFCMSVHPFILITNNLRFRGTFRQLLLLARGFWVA
Assay: Calcium imaging assay (FLIPR), HEK293T-Gα16gust44 cells transfected with mouse Tas2r126
Format: cell-based
Method: This set of bile acids was chosen because of their commercial availability in high purities, their diversity within the class of bile acids and their previous detection and quantitation in human blood. Stock solutions were prepared in DMSO.
As basal growth medium for the HEK293T-Gα16gust44 cell line[17],[59] served Dulbecco’s modified eagle medium (DMEM) (Thermo Fisher Scientific, Darmstadt, Germany) supplemented with 10 % fetal bovine serum (Sigma-Aldrich, Steinheim, Germany), 2 mM L-glutamine (Sigma-Aldrich, Steinheim, Germany), 100 units/ml penicillin (Sigma Aldrich, Steinheim, Germany) and 100 µg/ml streptomycin (Sigma Aldrich, Steinheim, Germany). Growth conditions were 37 °C, 5 % CO2 and saturated air-humidity[60].
HEK293T-Gα16gust44 cells were seeded on poly-D-lysine (10 µg/ml) coated 96-well plates to reach a confluence of 40-60 % the next day. For transient transfection 150 ng of plasmid DNA containing the receptor of interest and 0.3 µl lipofectamine 2000 (Thermo Fisher Scientific, Darmstadt, Germany) per well were used and transfection took place according to the manual of lipofectamine 2000. […] The empty vector DNA (mock) was transfected as negative control[14],[41].
Cells were loaded using the calcium-sensitive fluorescent dye Fluo-4-AM (Abcam, Cambridge, Great Britain) in the presence of 2.5 mM probenecid (Sigma-Aldrich, Steinheim, Germany) the day after transfection[13],[41]. 1 h after loading, cells were washed with C1 buffer using a BioTek Cell Washer, incubated in the dark for half an hour and washed again. For automated agonist application and measurement of fluorescence changes, a FLIPR^TETRA device (Molecular Devices, San José, United States) was used. Viability of cells was tested by application of 100 nM Somatostatin 14 (Bachem, Bubendorf, Switzerland)[42].
Measured data were negative control corrected by subtracting the signal of the mock-transfected cells and exported to Microsoft Excel using the FLIPR software ScreenWorks 4.2. In Microsoft Excel software, standardization of maximum fluorescence intensities to the basal fluorescence and normalization to the buffer-only control was done to calculate the relative fluorescence changes (ΔF/F).
Initial screening experiments performed in duplicate wells were confirmed by at least one replication and representative traces were selected for display. All dose-response relationships were determined by three independent experiments (biological replicates) performed in duplicates (technical replicates). Threshold concentrations, defined as lowest substance concentrations leading to statistically significant elevated fluorescence changes in receptor-transfected cells compared with empty vector-transfected cells, were determined using SigmaPlot with Student’s t-test to evaluate statistical significance (p < 0.01).

Question: C[C@H](CCC(=O)O)[C@H]1CC[C@H]2[C@@H]3[C@H](O)C[C@@H]4C[C@H](O)CC[C@]4(C)[C@H]3C[C@H](O)[C@]12C [Cholic Acid, cholic acid] was tested. Which RLU (Time 0 s) did it give?
Answer: 0 RLU

Question: And the RLU (Time 2 s)?
Answer: 6.32 RLU

Question: And the RLU (Time 4 s)?
Answer: -17.4742 RLU

Question: What about the RLU (Time 6 s) of the same compound?
Answer: 5.446 RLU

Question: What about the RLU (Time 8 s) of the same compound?
Answer: 10.1237 RLU

Question: What about the RLU (Time 12 s) of the same compound?
Answer: 18.7423 RLU

Question: What about the RLU (Time 14 s) of the same compound?
Answer: -3.953 RLU

Question: And the RLU (Time 16 s)?
Answer: -7.647 RLU

Question: And the RLU (Time 18 s)?
Answer: 11.4341 RLU

Question: What about the RLU (Time 18.781 s) of the same compound?
Answer: -6.409 RLU

Question: And the RLU (Time 20.781 s)?
Answer: -22.1196 RLU

Question: What about the RLU (Time 22.781 s) of the same compound?
Answer: 57.6732 RLU

Question: What about the RLU (Time 24.781 s) of the same compound?
Answer: 119.461 RLU

Question: And the RLU (Time 26.781 s)?
Answer: 150.574 RLU

Question: What about the RLU (Time 28.781 s) of the same compound?
Answer: 265.727 RLU

Question: What about the RLU (Time 30.781 s) of the same compound?
Answer: 370.327 RLU

Question: And the RLU (Time 32.781 s)?
Answer: 482.177 RLU

Question: What about the RLU (Time 34.781 s) of the same compound?
Answer: 570.785 RLU

Question: What about the RLU (Time 36.781 s) of the same compound?
Answer: 665.431 RLU

Question: And the RLU (Time 38.781 s)?
Answer: 689.631 RLU

Question: And the RLU (Time 40.781 s)?
Answer: 736.63 RLU

Question: And the RLU (Time 42.781 s)?
Answer: 773.753 RLU

Question: What about the RLU (Time 44.781 s) of the same compound?
Answer: 819.752 RLU

Question: And the RLU (Time 46.781 s)?
Answer: 829.41 RLU

Question: What about the RLU (Time 48.781 s) of the same compound?
Answer: 884.282 RLU

Question: And the RLU (Time 50.781 s)?
Answer: 903.917 RLU

Question: What about the RLU (Time 52.781 s) of the same compound?
Answer: 907.88 RLU

Question: What about the RLU (Time 54.781 s) of the same compound?
Answer: 897.488 RLU

Question: What about the RLU (Time 56.781 s) of the same compound?
Answer: 894.491 RLU

Question: And the RLU (Time 58.781 s)?
Answer: 914.837 RLU

Question: What about the RLU (Time 60.781 s) of the same compound?
Answer: 925.711 RLU

Question: What about the RLU (Time 62.781 s) of the same compound?
Answer: 919.134 RLU

Question: And the RLU (Time 64.781 s)?
Answer: 943.476 RLU

Question: What about the RLU (Time 66.781 s) of the same compound?
Answer: 923.886 RLU

Question: And the RLU (Time 68.781 s)?
Answer: 937.947 RLU

Question: And the RLU (Time 70.781 s)?
Answer: 951.397 RLU

Question: What about the RLU (Time 72.781 s) of the same compound?
Answer: 951.831 RLU

Question: And the RLU (Time 74.781 s)?
Answer: 959.178 RLU

Question: What about the RLU (Time 76.781 s) of the same compound?
Answer: 961.002 RLU

Question: And the RLU (Time 78.781 s)?
Answer: 948.826 RLU

Question: And the RLU (Time 80.781 s)?
Answer: 939.325 RLU

Question: And the RLU (Time 82.781 s)?
Answer: 951.223 RLU

Question: And the RLU (Time 84.781 s)?
Answer: 936.985 RLU

Question: What about the RLU (Time 86.781 s) of the same compound?
Answer: 922.709 RLU

Question: What about the RLU (Time 88.781 s) of the same compound?
Answer: 911.664 RLU

Question: What about the RLU (Time 90.781 s) of the same compound?
Answer: 942.653 RLU

Question: What about the RLU (Time 92.781 s) of the same compound?
Answer: 908.427 RLU

Question: And the RLU (Time 94.781 s)?
Answer: 912.682 RLU

Question: And the RLU (Time 96.781 s)?
Answer: 907.486 RLU

Question: And the RLU (Time 98.781 s)?
Answer: 899.352 RLU

Question: And the RLU (Time 100.781 s)?
Answer: 901.766 RLU

Question: And the RLU (Time 102.781 s)?
Answer: 898.622 RLU

Question: And the RLU (Time 104.781 s)?
Answer: 885.627 RLU

Question: What about the RLU (Time 106.781 s) of the same compound?
Answer: 885.616 RLU

Question: And the RLU (Time 108.781 s)?
Answer: 859.767 RLU

Question: What about the RLU (Time 110.781 s) of the same compound?
Answer: 849.777 RLU

Question: What about the RLU (Time 112.781 s) of the same compound?
Answer: 824.416 RLU

Question: What about the RLU (Time 114.781 s) of the same compound?
Answer: 805.273 RLU

Question: What about the RLU (Time 116.781 s) of the same compound?
Answer: 784.094 RLU

Question: And the RLU (Time 118.781 s)?
Answer: 781.757 RLU

Question: And the RLU (Time 120.781 s)?
Answer: 784.883 RLU

Question: What about the RLU (Time 122.781 s) of the same compound?
Answer: 777.647 RLU

Question: And the RLU (Time 124.781 s)?
Answer: 774.835 RLU

Question: What about the RLU (Time 126.781 s) of the same compound?
Answer: 752.144 RLU

Question: What about the RLU (Time 128.781 s) of the same compound?
Answer: 755.376 RLU

Question: What about the RLU (Time 130.781 s) of the same compound?
Answer: 741.203 RLU

Question: What about the RLU (Time 132.781 s) of the same compound?
Answer: 735.986 RLU

Question: What about the RLU (Time 134.781 s) of the same compound?
Answer: 705.295 RLU

Question: And the RLU (Time 136.781 s)?
Answer: 715.373 RLU

Question: And the RLU (Time 137.563 s)?
Answer: 694.021 RLU

Question: And the RLU (Time 143.563 s)?
Answer: 674.141 RLU

Question: And the RLU (Time 149.563 s)?
Answer: 648.129 RLU

Question: What about the RLU (Time 155.563 s) of the same compound?
Answer: 630.623 RLU

Question: And the RLU (Time 161.563 s)?
Answer: 621.371 RLU

Question: What about the RLU (Time 167.563 s) of the same compound?
Answer: 569.451 RLU

Question: And the RLU (Time 173.563 s)?
Answer: 563.656 RLU

Question: What about the RLU (Time 179.563 s) of the same compound?
Answer: 519.424 RLU

Question: What about the RLU (Time 185.563 s) of the same compound?
Answer: 518.545 RLU

Question: What about the RLU (Time 191.563 s) of the same compound?
Answer: 496.035 RLU

Question: What about the RLU (Time 197.563 s) of the same compound?
Answer: 519.073 RLU

Question: What about the RLU (Time 203.563 s) of the same compound?
Answer: 511.704 RLU

Question: And the RLU (Time 209.563 s)?
Answer: 507.09 RLU

Question: What about the RLU (Time 215.563 s) of the same compound?
Answer: 499.344 RLU

Question: And the RLU (Time 221.563 s)?
Answer: 510.025 RLU

Question: What about the RLU (Time 227.563 s) of the same compound?
Answer: 524.879 RLU

Question: And the RLU (Time 233.563 s)?
Answer: 522.75 RLU

Question: And the RLU (Time 239.563 s)?
Answer: 547.672 RLU

Question: And the RLU (Time 245.563 s)?
Answer: 498.436 RLU

Question: And the RLU (Time 293.563 s)?
Answer: 489.083 RLU

Question: And the RLU (Time 299.563 s)?
Answer: 473.554 RLU

Question: What about the RLU (Time 305.563 s) of the same compound?
Answer: 449.101 RLU

Question: And the RLU (Time 311.563 s)?
Answer: 467.667 RLU

Question: What about the RLU (Time 317.563 s) of the same compound?
Answer: 473.372 RLU

Question: And the RLU (Time 323.563 s)?
Answer: 461.769 RLU

Question: What about the RLU (Time 329.563 s) of the same compound?
Answer: 454.066 RLU

Question: What about the RLU (Time 335.563 s) of the same compound?
Answer: 446.164 RLU

Question: What about the RLU (Time 341.563 s) of the same compound?
Answer: 461.362 RLU

Question: And the RLU (Time 347.563 s)?
Answer: 456.539 RLU

Question: What about the RLU (Time 353.563 s) of the same compound?
Answer: 466.548 RLU

Question: What about the RLU (Time 359.563 s) of the same compound?
Answer: 455.13 RLU

Question: What about the “Activation threshold concentration Tas2r126” value (p < 0.01 vs empty vector) of the same compound?
Answer: 100 µM
